EPA's ToxValDB 9.5 (doi:10.2903/j.efsa.2009.333r)
In brackets after ≈: the same amount, converted by molar mass.

Key:
Colinus virginianus = conditions: for LD50: acute, oral, mortality
Apis mellifera = conditions: acute; duration: 48 hours; dermal; mortality
Daphnia magna = conditions: chronic/long-term; duration: 21 days; reproduction
Gasterosteus aculeatus = conditions: acute; duration: 96 hours; mortality
Homo sapiens = conditions: clinical; oral; M/F; clinical chemistry
Oncorhynchus mykiss = conditions: chronic/long-term; duration: 97 days; growth
Oryctolagus sp. = conditions: developmental; development
Rattus norvegicus = conditions: for NOAEL: clinical chemistry
Tagia sp. = conditions: acute; duration: 14 days; mortality
Aphidius rhopalosiphi = assay: LR50; higher = less toxic; conditions: acute; duration: 48 hours; mortality

| SMILES | LD50 (Colinus virginianus; diet) | LD50 (Colinus virginianus) [mg/kg] | LD50 (Apis mellifera) [µg/piece] | NOEC (Colinus virginianus; reproduction developmental) [mg/kg-day] | NOEC (Daphnia magna) [mg/L] | LC50 (Gasterosteus aculeatus) [µg/mL] | NOAEL (Homo sapiens) [mg/kg-day] | NOEC (Oncorhynchus mykiss) [mg/L] | NOAEL (Oryctolagus sp.) [mg/kg-day] | LD50 (Rattus norvegicus; acute, oral, F, mortality) [mg/kg] | NOAEL (Rattus norvegicus; chronic, duration: 2 years) [mg/kg-day] | NOAEL (Rattus norvegicus; subchronic, duration: 90 days, oral) [mg/kg-day] | LC50 (Tagia sp.) [mg/kg] | LR50 (Aphidius rhopalosiphi) [g/ha] |
| --- | --- | --- | --- | --- | --- | --- | --- | --- | --- | --- | --- | --- | --- | --- |
| CCOC(=O)CC(SP(=O)(OC)OC)C(=O)OCC (stereo unspecified) [Malaoxon] | 334 mg/kg | 43 | – | – | – | – | – | – | – | – | – | – | – | – |
| CCOC(=O)CC(SP(=S)(OC)OC)C(=O)OCC (stereo unspecified) [Malathion] | 554 mg/kg-day | 359 | 0.16 | 13.5 | 6e-05 | 0.022 (≈ 0.0666 µM) | > 15 | 0.021 | 25 | 1780 | 29 | 34.4 | 613 | 0.0612 |
